In patent US11524950B2, “Treatment of immune-related and inflammatory diseases” (Celgene Corporation, priority 2012, dated 2022):

How the values were obtained:
RANTES = assay: LPS-stimulated hPBMC cytokine production: RANTES enhancement; type: cell-based, human; conditions: at 0.1 μM
Procedure: (§1) 50 ml human buffy coat was aliquoted 25 ml each into two 50 ml conical tubes and 25 ml sterile HBSS was added to each conical tube. The tubes were gently mixed by inverting. Fifteen ml of room temperature Ficoll-Paque Plus (GE Healthcare (location); cat #17-1440-02) was aliquoted into four 50 ml conical tubes. Then 25 ml of the Buffy coat/HBSS mixture was layered gently and slowly on top of the Ficoll. The samples were centrifuged at 450 rpm for 35 minutes. The top layered containing plasma was pipetted off and discarded. The interface containing mononuclear cells was transferred into two 50 ml conical tubes. Both conical tubes were filled to total volume of 50 ml with HBSS and centrifuged at 1200 rpm for 10 minutes. The cells were washed again in HBSS and spun at 1000 rpm for 10 minutes. Cell pellet was resuspended with 20 ml RPMI complete medium (RPMI/5% human sera/1× pen/strep/glut) and counted.
(§2) One hundred μl (2×10^6/ml) of hPBMCs were added to each well of a 96 well flat-bottom plate (final cell count=2×10^5/well) and incubated at 37° C. for 1 hour. […] compound was added to each test well and twenty μl medium containing 2.5% DMSO was added to each control well ([DMSO]final=0.25%) and plate was incubated for 1 hour at 37° C. Cells were then stimulated with […] 2.5 ng/ml LPS ([LPS]final=1 ng/ml) and incubated for 18 hours at 37° C.
(§3) 50 μl supernatant from each well was transferred into 3 new round-bottomed 96 well plates and stored at −20° C. for Luminex analysis. Duplicate wells were performed for each sample.
(§4) Supernatant samples were analyzed for cytokines in multiplex format according to the manufacturer's instructions (Millipore, Billerica, Ma 01821) using a Luminex IS100 instrument. IL-12 and GM-CSF analyses were done in a two-plex format using neat supernatants while all other cytokines were done in a multiplex format using supernatants diluted 1:20. Data analysis was performed using Upstate Beadview software. […] The IC50 were performed using GraphPad Prism v5.00. […]

TNF-α = assay: LPS-stimulated hPBMC cytokine production: TNF-α; type: cell-based; conditions: Homo sapiens; LPS 1 ng/ml, 18 hours
Procedure: as §1, §2, §3, §4

IL-8 = assay: LPS-stimulated hPBMC cytokine production: IL-8; type: cell-based; conditions: Homo sapiens; LPS 1 ng/ml, 18 hours
Procedure: as §1, §2, §3, §4

MDC = assay: LPS-stimulated hPBMC cytokine production: MDC; type: cell-based; conditions: Homo sapiens; LPS 1 ng/ml, 18 hours
Procedure: as §1, §2, §3, §4

MCP-1 = assay: LPS-stimulated hPBMC cytokine production: MCP-1 enhancement; type: cell-based, human; conditions: at 0.1 μM
Procedure: as §1, §2, §3, §4

MIP-1β = assay: LPS-stimulated hPBMC cytokine production: MIP-1β; type: cell-based; conditions: Homo sapiens; LPS 1 ng/ml, 18 hours
Procedure: as §1, with “Fifteen ml of room temperature Ficoll-Paque Plus (GE Healthcare (location); cat #17-1440-02) was aliquoted into four 50 ml conical tubes.” left out
Cells were then stimulated with […] 2.5 ng/ml LPS ([LPS]final=1 ng/ml) and incubated for 18 hours at 37° C.
as §3
IL-12 and GM-CSF analyses were done in a two-plex format using neat supernatants while all other cytokines were done in a multiplex format using supernatants diluted 1:20. Data analysis was performed using Upstate Beadview software. […] The IC50 were performed using GraphPad Prism v5.00. The data values represent the mean±SEM (standard error of the mean) of n (number of experiments in duplicate).

IL-10 = assay: LPS-stimulated hPBMC cytokine production: IL-10 enhancement; type: cell-based, human; conditions: at 0.1 μM
Procedure: as §1, §2, §3, §4

NK cell IFN-γ production = assay: NK IgG-induced interferon-gamma (IFN-gamma) assay; type: cell-based; conditions: Homo sapiens, 48 h
Procedure: NK cells from healthy donors were isolated from buffy coat blood by negative selection using the RosetteSep NK cell enrichment cocktail (Stem Cell Technologies, Vancouver, BC) prior to Ficoll-Hypaque (Fisher Scientific Co LLC, PA) density gradient centrifugation following the manufacturers' instructions. CD56+NK cells were isolated to ˜85% purity, as determined by flow cytometry (BD Biosciences, CA).
Ninety-six-well flat-bottom plates were coated with 100 μg/mL of human IgG (Sigma) overnight at 4° C. The next day, unbound IgG was washed away with cold 1×PBS. NK cells were then plated in the IgG-coated 96-well plates at 2×10^5 cells per well in 180 μL RPMI-1640 Media and 10 ng/mL of rhIL-2 (R & D Systems, MN) was added. Test compounds were added in a volume of […]. Final concentrations of test compounds were 0.0001, 0.001, 0.01, 0.1, 1, or 10 μM. Final DMSO concentrations were 0.25%. After 48 hours, the supernatants were harvested and analyzed by ELISA for IFN-γ production.
Data used to determine the ability of test compounds to enhance NK cell IFN-γ production in response to immobilized IgG and rhIL-2 stimulation was analyzed for each donor using GraphPad Prism v5.0 software.

SMILES | RANTES Mean % of Control (RANTES) | IC50 (TNF-α) [nM] | IC50 (IL-8) [nM] | IC50 (MDC) [nM] | MCP-1 Mean % of Control (MCP-1) | IC50 (MIP-1β) [nM] | IL-10 Mean % of Control (IL-10) | EC50 (NK cell IFN-γ production) [nM]
O=C1CCC(N2Cc3c(OCc4ccc(CN5CCOCC5)cc4)cccc3C2=O)C(=O)N1 (racemic) [Racemate, 3-[4-(4-morphlin-4-ylmethylbenzyloxy)-1-oxo-1,3-dihydro-isoindo-2-yl]piperidine-2,6-dione] | 153 % of control | 1.8 | > 10000 | 2.6 | 208 % of control | > 10000 | 371 % of control | 37
O=C1CC[C@@H](N2Cc3c(OCc4ccc(CN5CCOCC5)cc4)cccc3C2=O)C(=O)N1 [R-enantiomer, (R)-3-[4-(4-morphlin-4-ylmethylbenzyloxy)-1-oxo-1,3-dihydro-isoindo-2-yl]piperidine-2,6-dione] | 151 % of control | 9.5 | > 10000 | 12 | 223 % of control | > 10000 | 442 % of control | 16
O=C1CC[C@H](N2Cc3c(OCc4ccc(CN5CCOCC5)cc4)cccc3C2=O)C(=O)N1 [Test compound, (S)-3-[4-(4-morphlin-4-ylmethylbenzyloxy)-1-oxo-1,3-dihydro-isoindo-2-yl]piperidine-2,6-dione] | 153 % of control | 0.59 | > 10000 | 2.1 | 233 % of control | > 10000 | 379 % of control | 12
